Measured values as given in article PMC11887051, “Discovery of ONO-2920632 (VU6011887): A Highly Selective and CNS Penetrant TREK-2 (TWIK-Related K+ Channel 2) Preferring Activator In Vivo Tool Compound” (ACS Chemical Neuroscience, 2025).

Tests used:
[1] = rat plasma:brain level study (Kp, Kp,uu); assay type: in vivo; conditions: male, Sprague-Dawley, brain and plasma; for Kp at 2 h / Kp uu at 2 h: oral rat plasma:brain level study, 2 h after 3 mg/kg PO
Experimental: In vivo DMPK experimental:
Determination of brain to plasma ratio:
All animal study procedures were approved by the Institutional Animal Care and Use Committee and were conducted in accordance with the National Institutes of Health regulations of animal care covered in Principles of Laboratory Animal Care (National Institutes of Health). All rats were fasted overnight prior to testing. […]
At 15 min post dosing, blood sample was collected into chilled, K2EDTA anticoagulant-fortified tube and immediately placed on wet ice. The blood sample was then centrifuged (1700 rcf, 5 minutes, 4 °C) to obtain plasma sample. At the same post-administration time point, whole brain sample was obtained by rapid dissection, rinsed with PBS, and immediately frozen in individual tissue collection box (dry ice). All brain and plasma samples were stored at -80 °C until […]
Sample Analysis: Concentrations in plasma and brain homogenates were quantified by liquid chromatography tandem mass spectrometry (LC-MS/MS). Whole brains were homogenized in 3 mL of 70:30 IPA:water in a mini bead beater for 3 min, and centrifuged at 3,500 g for 5 min. 5 uL of the supernatant was diluted in 15 uL of blank plasma for quantification of the analytes. Plasma samples were centrifuged at 3,500 g for 5 min. A standard curve was generated by diluting the analytes DMSO stocks with blank plasma to obtain a final concentration of 10,000 ng/ml followed by a serial dilution down to 0.5 ng/ml. Quality controls were generated by a serial dilution of the 5,000 ng/ml standard curve solution in blank plasma to obtain 3 concentrations of 500, 50, and 5 ng/ml. 20 uL of brain diluted in plasma, plasma, blank plasma, standard curve and QC samples were loaded in a V-bottom 96-well plate. 120 uL of acetonitrile containing 0.05 uM carbamazepine (internal standard) was added to each well and the plate was centrifuged at 3,500 g for 5 min. 60 uL of the supernatant of each well (protein free) was transferred to a new 96-well plate containing 60 uL of water. The plates were sealed for analysis by LC-MS/MS.
Plasma and brain tissue samples originating from in vivo studies were analyzed by electrospray ionization using an AB Sciex Q-TRAP 5500 (Foster City, CA) that was coupled to a Shimadzu LC-20AD pump (Columbia, MD) and a Leap Technologies CTC PAL auto-sampler (Carrboro, NC). Analytes were separated by gradient elution using a C18 column (3 x 50 mm, 3 mm; Fortis Technologies Ltd, Cheshire, UK) that was thermostated at 40 °C. HPLC mobile phase A was 0.1% formic acid in water (pH unadjusted); mobile phase B was 0.1% formic acid in acetonitrile (pH […]
min, with an isocratic hold for 0.5 min, before transitioning to 10% B over 0.05 min. The column was re-equilibrated (1 min) before the next sample injection. The total run time was 2.55 min, and the HPLC flow rate was 0.5 ml/min. The source temperature was set at 500 °C, and mass spectral analyses were performed using a Turbo-Ion spray source in positive ionization mode (5.0-kV spray voltage) and using multiple-reaction monitoring of transitions specific for the analytes. All data were analyzed using AB Sciex Analyst 1.5.1 software.
Brain plasma concentration ratio (Kp) was calculated by dividing brain concentration by plasma concentration for each animal. Unbound brain to unbound plasma concentration ratio (Kp,uu) is calculated using the following formula: Kp,uu = (Brain ng/g x brain fu)/(plasma ng/ml x plasma fu).
For determination of the plasma concentration-time profile, compounds were formulated in methyl cellulose and administered as a 3 mg/kg PO dose to male C57BL/6 mouse or SD rat (n = 2). For the same determination, compounds were formulated in HP-β-CD and administered as a 0.1 mg/kg IV dose to male beagle dog (n = 2).
Plasma samples originating from in vivo studies were analyzed by electrospray ionization using a Q-TRAP 5500 (AB Sciex) that was coupled to a Prominence UFLC XR (Shimadzu Corporation). […]

[2] = mouse predicted hepatic clearance; assay type: in vitro ADME
Experimental: Intrinsic clearance: Human or rat hepatic microsomes (0.5 mg/mL) and 1 µM test compound were incubated in 100 mM potassium phosphate pH 7.4 buffer with 3 mM MgCl2 at 37 °C with constant shaking. After a 5 min preincubation, the reaction was initiated by the addition of NADPH (1 mM). At selected time intervals (0, 3, 7, 15, 25, and 45 min), aliquots were taken and subsequently placed into a 96-well plate containing cold acetonitrile with internal standard (50 ng/mL carbamazepine). Plates were then centrifuged at 3000 rcf (4 °C) for 10 min, and the supernatant was transferred to a separate 96-well plate and diluted 1:1 with water for LC/MS/MS analysis. The in vitro half-life ( 1/2, min, Eq. 1), intrinsic clearance (CLint, mL/min/kg, Eq. 2), and subsequent predicted hepatic clearance (CLhep, mL/min/kg, Eq. 3) was determined employing the […]
where k represents the slope from linear regression analysis of the natural log percent remaining of a test compound as a function of incubation time […]
(2) CLint = in vitroT1/2 x mg microsomes x gram liver x kg body wt ascale-up factors: of 20 (human) or 45 (rat) […]
where Qh (hepatic blood flow, mL/min/kg) is 21 (human) or 70 (rat).
LC/MS/MS Bioanalysis of Samples from Plasma Protein Binding and Intrinsic Clearance […]
Samples were analyzed on a Thermo Electron TSQ Quantum Ultra triple quad mass spectrometer (San Jose, CA) via electrospray ionization (ESI) with two Themo Electron Accella pumps (San Jose, CA), and a Leap Technologies CTC PAL autosampler (Carrboro, NC). Analytes were separated by gradient elution on a dual column system with two Thermo Hypersil Gold (2.1 x 30 mm, 1.9 µm) columns (San Jose, CA) thermostated at 40 °C. HPLC mobile phase A was 0.1% formic acid in water and mobile phase B was 0.1% formic acid in acetonitrile. The gradient started […]
for 0.2 min; returned to 10% B in 0.1 min. The total run time was 1.3 min and the HPLC flow rate was 0.8 mL/min. […]

[3] = intravenous, 0.2 mg/kg, rat cassette PK study

SMILES	Kp at 2 h [1]	Kp uu at 2 h [1]	mouse CLhep (predicted hepatic clearance) [2]	Kp at 15 min [1, 3]	Kp uu at 15 min [1, 3]	Kp uu ([1]; rat, dosing not given)
CS(=O)(=O)Nc1ccc(C(=O)NCc2ccc(Cl)cc2Cl)cc1 [Compound 13]	0.26	0.15				
O=C(NCc1ccc(Br)cc1Cl)c1ccc(-c2ncn[nH]2)cc1 [Compound 14a]			33.0 mL/min/kg	0.2	0.36	
Cc1cc(OC(F)(F)F)ccc1CNC(=O)c1ccc2ncnn2c1 [Compound 19a]	0.5	0.2	30.5 mL/min/kg			
O=C(NCc1ccc(OC(F)(F)F)cc1F)c1ccc2ncnn2c1 [Compound 19b]	0.37	0.38	17.8 mL/min/kg			
O=C(NCc1ccc(OC(F)(F)F)cc1Cl)c1ccc2nncn2c1 [Compound 20]						0.078
